Where two headings read alike, the source gives them in different places.
Tests used:
caspase-14 = test: Expression of caspase-14 in HaCaT cells (qRT-PCR); assay type: cell-based; details: HaCaT cells, 20, 10, 5 μM, 72 h, dose dependent
Protocol: (§1) HaCaT cells were cultured with DMEM in 6-well plate at 1 × 10^5 cells/well for 24 h, then treated with 20, 10, 5 μM of compounds 1–7 for 72 h. Total RNA of HaCaT cells were extracted using RNA Miniprep kit (Biomiga) according to the manufacturer's instruction. Then total RNA was reverse transcribed using PrimeScript RT reagent Kit (Takara, Dalian, China). PCR amplification was performed on an StepOne Plus real time PCR system (Applied Biosystems, Foster City, CA) using the SYBR Green Master Mix (Applied Biosystems, Foster City, CA). All experiments were performed in triplicate, and the relative levels of assayed mRNAs were calculated with the delta–delta CT method using ACTIN expressions as endogenous control, and normalized to non-treated control. […]
(§2) delta‒delta CT method using lamivudine expressions as positive control, and normalized to non-treated control.
(§3) 9. Assay for protective effects on skin barrier functions in in vitro
(§4) HaCaT cells were cultured with DMEM in 6-well plate at 1×10^5 cells/well for 24 h, then treated with 20, 10, 5 µM of compounds 1‒8 for 72 h. […]
(§5) All experiments were performed in triplicate, and the relative levels of assayed mRNAs were calculated with the delta‒delta CT method using ACTIN expressions as endogenous control, and normalized to non-treated control.

HaCaT cells = test: Protection against UVB-induced cell damage in HaCaT cells (MTT assay); assay type: cell-based; details: Homo sapiens, HaCaT, light or radiation study, 24 h, read-out: cell viability after UVB irradiation
Protocol: HaCaT cells were seeded at 5 × 10^5 cells per well in 6-well plates and incubated under starvation conditions for 24 h using serum-free MEM. HaCaT cells were exposed to UVB irradiation (UVB lamp: SUV-1000, Sigma-China) at a dose of 30 mJ/cm^2. After UVB irradiation, DMEM medium containing 1 (20 μM) or epigallocatechin gallate (20 μM) was added and the cells were incubated for 24 h, and then the MTT assay was performed.

[1] = Cytotoxic activity toward tumor cell line U937; assay type: cell-based; details: human, U937 tumor cells
[2] = Cytotoxic activity toward tumor cell line A549; assay type: cell-based; details: human, A549 tumor cells
[3] = system: NO production in LPS-induced RAW 264.7 macrophages; test: Inhibition of LPS induced NO production in RAW264.7 macrophages (Griess reagent); assay type: cell-based, mouse
Protocol: All compounds were assayed by measuring the inhibitory effects on NO production induced by LPS in mouse macrophage RAW 264.7 cells. The RAW 264.7 cells were seeded in each well of a 96-well plate at a concentration of 5 × 10^5 cells/ml in DMEM medium containing 10% fetal bovine serum, 2 mmol/l glutamine, 100 U/ml penicillin, and 100 μg/ml streptomycin. After incubation at 37°C in a humidified atmosphere of 5% CO2 air for 12 h, cells were treated with LPS (1 μg/ml) and compounds ([…], and compound was dissolved in DMSO to dilute until the final DMSO concentration <0.1%, v/v), then incubation for 24 h at 37°C. NO production was determined by measuring the quantity of nitrite in the culture medium by the Griess reagent. Aminoguanidine was selected as a positive control. A 50 μl of the supernatant of culture medium was mixed with 100 μl of the Griess reagent. Using nitrite to generate a standard curve, nitrite production was measured by a microplate reader at 540 nm. Cell viability was examined by the MTT method (Wu et al., [2016]). The compounds with inhibitory rate more than 50% at a dose of 50 μg/ml were further detected in the gradient concentrations to calculate IC50 values. […]
(§6) 7. Assay for inhibition toward nitric oxide production in RAW264.7 macrophages The experiment was conducted according to a literature procedure.1 Murine monocytic RAW264.7 cells grown in 96-well cell culture plates (2 × 10^5 cells/well) and pretreated with serial concentrations of the compounds 1‒8 for 30 min, followed by stimulation with LPS (1 μg/mL) under a humidified atmosphere with 5% CO2 at 37°C. After 24 h, the NO production of the supernatant was determined by adding the 100 μL of Griess reagent. Subsequently, the MTT
(§7) [3-(4,5-dimethylthiazol-2-yl)-2,5-diphenyltetrazolium bromide] reduction2 was used to evaluate the cell viability, and results were expressed as the mean value of triplicate determinations. The positive control was aminoguanidine.2 […]

filaggrin = test: Expression of filaggrin in HaCaT cells (qRT-PCR); assay type: cell-based; details: HaCaT cells, 20, 10, 5 μM, 72 h, dose dependent
Protocol: as §1, §2, §3, §4, §5

[4] = Cytotoxic activity toward tumor cell line SMMC7721; assay type: cell-based; details: human, SMMC7721 tumor cells
[5] = Cell viability of RAW264.7 macrophages (MTT method); assay type: cell-based, mouse; details: mouse
Protocol: as §6, §7

RAW264.7 macrophages = test: as above; assay type: cell-based, mouse; details: RAW264.7, MTT; Table 3; read-out: CC50 (μM) Cytotoxicity
Protocol: as §6, §7

[6] = system: HBV virus in HepG2.2.15 cells; test: In vitro anti-HBV effects (HBV DNA, real time PCR); assay type: cell-based; details: 10 μM
Protocol: HepAD38 cells were cultured with DMEM in 48-well plate at 1 × 10^5 cells/well for 24 h, then treated with 10 μM of each compound for 72 h. After 4 days, the cells were washed with precooled PBS for 2 times. HBV progeny DNA of HepAD38 cells were extracted using QIAamp DNA Blood Mini kit (Biomiga) according to the manufacturer's instruction. Total DNA was reversely transcribed using PrimeScript RT reagent Kit (Takara, Dalian, China). PCR amplification was performed on an StepOne Plus real time PCR system (Applied Biosystems, Foster City, CA) using the SYBR Green Master Mix (Applied Biosystems, Foster City, CA). All experiments were performed in triplicate, and the relative levels of assayed HBV DNA were calculated with the delta–delta CT method using lamivudine as a positive control, and normalized to non-treated control. […]
8. Assay for in vitro anti-HBV effects
HepG2. 2. 15 cells were cultured with DMEM in 48-well plate at 1×10^5 cells/well for 24 h, then treated with 10 µM of compounds for 72 h. At d 4, these cells were washed 2 times with precooled PBS, and treated with 10 µM of compounds for 72 h.
HBV progeny DNA of HepG2. 2. 15 cells were extracted using QIAamp DNA Blood Mini kit (Biomiga) according to the manufacturer's instruction. Then total DNA was reverse transcribed using PrimeScript RT reagent Kit (Takara, Dalian, China). The primers were designed and synthesized by Takara, and the sequences of the primers […]
PCR amplification was performed on an StepOne Plus real time PCR system (Applied Biosystems, Foster City, CA) using the SYBR Green Master Mix (Applied Biosystems, Foster City, CA). All experiments were performed in triplicate, and the relative levels of assayed HBV DNA were calculated with the […]
delta‒delta CT method using lamivudine expressions as positive control, and normalized to non-treated control. […]
(Takara, Dalian, China). The primers were designed and synthesized by Takara, the […]
performed on an StepOne Plus real time PCR system (Applied Biosystems, Foster City, CA) using the SYBR Green Master Mix (Applied Biosystems, Foster City, CA). […]

## C=C1[C@@]2(C)C[C@H]3[C@]4(C)[C@H](O)[C@@H]5C[C@@](C)(OC5=O)[C@H]4CC[C@]3(C)[C@]1(C(=O)OC)C(=O)[C@@](C)(O)C2=O [Compound 1, methyl (1R, 2S, 5R, 5aS, 7aS, 8R, 10S, 12R, 13aR, 13bS)-1, 10-dihydroxy-5,7a,10,12,13b-pentamethyl-14-methylene-3,9,11-trioxotetradecahydro-2,5:8,12-dimethanocycloocta[3,4]benzo[1,2-c]oxepine-8(5H)-carboxylate]
caspase-14
  expression of caspase-14: significantly stimulated
HaCaT cells
  viability at 20 µM: 77%
[1]
  IC50: > 10 µM
[2]
  IC50: > 10 µM
[3]; Mus musculus, RAW264.7, read-out: IC50 (M), 50% inhibitory concentration
  IC50: > 5e-05 M
filaggrin
  expression of filaggrin: significantly stimulated
[4]
  IC50: > 10 µM
[5]; RAW264.7, MTT, Table 3, read-out: CC50 (μM) Cytotoxicity
  CC50 at 24 h: > 100 µM
[5]; Table S9 of the supplement, read-out: CC50 (M), 50% cytotoxic concentration
  CC50 at 24 h: > 50 µM

## C=C1C2(C)CC3C4(C)C=CC(=O)OC(C)(C)C4CCC3(C)C13C(=O)OC(C)C3(O)C2=O [Compound 3, (5aS, 5bS, 7R, 8aR, 9R, 11aR, 11bS, 13aS)-8a-hydroxy-1,1,5a, 7,9,11b-hexamethyl-14-methylene-5a,5b,6,7,8a,9,11b,12,13,13a-decahydro-1H,11H-7, 11a-methanofuro[3″,4″:3′,4′]cyclohepta[1′,2′:3,4]benzo[1,2-c]oxepine-3,8,11-trione]
[3]; 50 μM, LPS 1 μg/ml, 24 h
  NO inhibition % (50 μM): 65%
[3]; LPS 1 μg/ml, 24 h, Table 3, read-out: IC50 (μM) NO
  IC50: 3.38e-05 ± 3.13e-06 M
[3]; LPS-induced RAW 264.7 macrophages
  inhibition toward NO production (in words): moderate inhibition
RAW264.7 macrophages
  CC50: > 100 µM
[6]
  inhibitory rate of DNA expression of the HBV virus: 25%

Source: paper PMC6072878, “Brasilianoids A–F, New Meroterpenoids From the Sponge-Associated Fungus Penicillium brasilianum” (Frontiers in Chemistry, 2018)
